Test results: patent publication US20260217712A1, “SOLID STATE FORMS OF MNK INHIBITORS” (4E Therapeutics, Inc., priority 2023, published 2026)
“And” between values parts separate entries of the source, which are not always exact repeats. Equal values may be shown once. Where a name gives a salt, the structure may show the parent alone.

Key:
Assay type in all cases: physicochemical
[1] = Static storage at 40° C./75% RH, XRPD and HPLC post storage; details: for stability to storage at 40° C./75% RH (in words): 40° C./75% RH (elevated temperature and humidity); for HPLC purity post storage at 40° C./75% RH / XRPD post storage at 40° C./75% RH: 7 days
Method: Purity analysis was performed on an Agilent HP1100/Infinity II 1260 series system equipped with a diode array detector and using OpenLAB software. The full method details are provided below:
Poorly Crystalline Structure (I) (from Lot A, Free Form Pattern 1, 30 mg) was dissolved in 50 volumes of THF:Water 9:1 at 60° C. in 13 vials, stirring at 500 RPM (small amount of debris present). The solutions were then treated with 1.1 molar equivalents (90/180 μL) of selected counter-ions (Table 7). The resulting solutions were then cooled down to 5° C. at 0.1° C./min and were held at this temperature for 2 days. The suspensions were filtered and dried under suction for 20 min. The gummed sample was left with the cap off to promote crystallization. All solids obtained were initially analyzed by XRPD and stored in glass HPLC vials for subsequent analysis.
Any solids obtained were analyzed by XRPD, ^1H NMR, HPLC, TGA, DSC, XRPD post storage at 40° C./75% RH after 7 days & IC if necessary. Additional microscopy techniques (PLM & HSM) were used to complement the above analysis where appropriate.

[2] = as above; details: 7 days
[3] = High temperature solubility assessment; parameters: key: T = turbid solution; X = suspension; details: for observation at 60° C.: 30 mg in 50 volumes of the sample's solvent; for observation at 70° C. / observation at 80° C. / observation at 85° C.: 50 volumes
Method: Due to low solubility observed in the experiments of Example 2, a second solubility assessment of Structure (I) from Lot A was carried out using higher temperatures closer to the boiling points of the selected solvent systems (Table 10). Once at temperature, phosphoric acid or a base was added to either promote formation of a phosphate or Na/K salt.
Structure (I) (from Lot A, Free Form Pattern 1, 30 mg) was weighed into 6 HPLC vials and a stirrer bar added to each one. 50 volumes of different solvents were added to the samples according to Table 10 and the samples heated incrementally on a Polar Bear heating block, stirring at 400 RPM. Observations were noted as the temperature was increased, holding at each temperature for 10 minutes.

[4] = Competitive slurries of Pattern 3 and Pattern 11, XRPD; details: for XRPD after 7 days / XRPD after 17 days: competitive slurry, solvent and temperature per sample; for XRPD after 7 days: 20 vol
Method: A solid mixture of Structure (I) Pattern 3 (from Lot B, 300 mg) and Pattern 11 (Sample 35-1, 300 mg) was mixed for 3 hours using a turbula mixer.
The solid mixture (30 mg) was suspended in solvent (dried with molecular sieves, 600 μL, 20 vol) and either stirred in the fridge, shaken at RT or 55° C. After 7 days, an aliquot of each suspension was analyzed by XRPD. Samples that were still a mixture of forms were placed back into fridge/shakers for a further 10 days and re-analyzed (results shown in Table 36).
Competitive slurry experiments at 55° C., along with one at 5° C., were repeated using a saturated solution as the solvent mixture to minimize dissolution that may have occurred at temperatures other than room temperature.
A saturated solution of THF/Water (9:1) (5 mL) with Structure (I) (from Lot B) was equilibrated at 55° C. overnight in a shaker. The solution was filtered using 0.45 μm nylon filter before use.
A solid mixture of Pattern 3 and Pattern 11 (30 mg) was suspended in the saturated solution (600 μL, 20 vol) and either stirred in the fridge (5° C.) or shaken at 55° C. After 1 day, aliquots of the suspensions were analyzed by XRPD. Both samples were placed back into fridge/shaker. After a total of 11 days, the samples were removed from fridge/shaker. Sample 38-2 was filtered before XRPD, Sample 38-1 was pipetted onto the XRPD holder and allowed to dry before analysis (solid passed through filter).

Cc1cc(Nc2cc(N)ncn2)c(=O)n2c1C(=O)NC21CCC2(CC2)CC1 [BES Pattern 1]
stability to storage at 40° C./75% RH (in words) [1]: not stable to storage | HPLC purity post storage at 40° C./75% RH ([1]; listed as 9-6): 98.8%

Cc1cc(Nc2cc(N)ncn2)c(=O)n2c1C(=O)NC21CCC2(CC2)CC1 [CIT Pattern 1]
HPLC purity post storage at 40° C./75% RH ([1]; listed as 9-11): 98.8% | XRPD post storage at 40° C./75% RH ([2]; listed as 9-11): Citrate Pattern 1

Cc1cc(Nc2cc(N)ncn2)c(=O)n2c1C(=O)NC21CCC2(CC2)CC1 [FUM Pattern 1]
change of chemical purity on storage at 40° C./75% RH (in words) [1]: slight uplift | stability to storage at 40° C./75% RH (in words) [1]: stable to storage | HPLC purity post storage at 40° C./75% RH ([1]; listed as 9-10): 98.8% | XRPD post storage at 40° C./75% RH ([2]; listed as 9-10): Fumarate Pattern 1

Cc1cc(Nc2cc(N)ncn2)c(=O)n2c1C(=O)NC21CCC2(CC2)CC1 [Fumarate Pattern 2]
XRPD post storage at 40° C./75% RH [1]: loss of the additional peaks | HPLC purity post storage at 40° C./75% RH ([1]; listed as 22-4): 99.2% | XRPD post storage at 40° C./75% RH ([2]; listed as 22-4): FUM P2 (additional peaks lost),

Cc1cc(Nc2cc(N)ncn2)c(=O)n2c1C(=O)NC21CCC2(CC2)CC1 [HBr Pattern 1]
change of chemical purity on storage at 40° C./75% RH (in words) [1]: slight uplift in purity | stability to storage at 40° C./75% RH (in words) ([1]; listed as 9-1): behavior but not stable to storage | XRPD post storage at 40° C./75% RH [1]: remained HBr Pattern 1 | HPLC purity post storage at 40° C./75% RH ([1]; listed as 9-1): 98.7% purity | XRPD post storage at 40° C./75% RH ([2]; listed as 9-1): XRPD-HBr Pattern 1

Cc1cc(Nc2cc(N)ncn2)c(=O)n2c1C(=O)NC21CCC2(CC2)CC1 [HCl Pattern 4]
stability to storage at 40° C./75% RH (in words) [1]: instability to storage | HPLC purity post storage at 40° C./75% RH ([1]; listed as 13-2): frit are not present. 95.7% purity

Cc1cc(Nc2cc(N)ncn2)c(=O)n2c1C(=O)NC21CCC2(CC2)CC1 [PHO Pattern 2]
HPLC purity post storage at 40° C./75% RH [1]: crystallinity. 97.0% purity observed. | XRPD post storage at 40° C./75% RH [1]: lost a significant amount of crystallinity

Cc1cc(Nc2cc(N)ncn2)c(=O)n2c1C(=O)NC21CCC2(CC2)CC1 [Pattern 2]
HPLC purity post storage at 40° C./75% RH ([1]; listed as 9-12): 98.8%

Cc1cc(Nc2cc(N)ncn2)c(=O)n2c1C(=O)NC21CCC2(CC2)CC1 [Pattern 5]
XRPD post storage at 40° C./75% RH ([2]; listed as 30-2): transition completed and 7 days: Change in form-Pattern 3

Cc1cc(Nc2cc(N)ncn2)c(=O)n2c1C(=O)NC21CCC2(CC2)CC1 [Pattern 10-1]
observation at 60° C. [3]: X | observation at 70° C. [3]: X

Cc1cc(Nc2cc(N)ncn2)c(=O)n2c1C(=O)NC21CCC2(CC2)CC1 [Pattern 10-2]
observation at 60° C. [3]: X | observation at 70° C. [3]: X | observation at 80° C. [3]: X | observation at 85° C. [3]: X

Cc1cc(Nc2cc(N)ncn2)c(=O)n2c1C(=O)NC21CCC2(CC2)CC1 [Pattern 10-3]
observation at 60° C. [3]: X | observation at 70° C. [3]: X | observation at 80° C. [3]: X | observation at 85° C. [3]: X

Cc1cc(Nc2cc(N)ncn2)c(=O)n2c1C(=O)NC21CCC2(CC2)CC1 [Pattern 10-4]
observation at 60° C. [3]: X | observation at 70° C. [3]: X | observation at 80° C. [3]: X | observation at 85° C. [3]: X

Cc1cc(Nc2cc(N)ncn2)c(=O)n2c1C(=O)NC21CCC2(CC2)CC1 [Pattern 10-5]
observation at 60° C. [3]: X | observation at 70° C. [3]: X | observation at 80° C. [3]: X | observation at 85° C. [3]: X

Cc1cc(Nc2cc(N)ncn2)c(=O)n2c1C(=O)NC21CCC2(CC2)CC1 [Pattern 10-6]
observation at 60° C. [3]: T | observation at 70° C. [3]: T

Cc1cc(Nc2cc(N)ncn2)c(=O)n2c1C(=O)NC21CCC2(CC2)CC1 [Pattern 10-7]
observation at 60° C. [3]: T | observation at 70° C. [3]: T

Cc1cc(Nc2cc(N)ncn2)c(=O)n2c1C(=O)NC21CCC2(CC2)CC1 [Pattern 10-8]
observation at 60° C. [3]: T | observation at 70° C. [3]: T

Cc1cc(Nc2cc(N)ncn2)c(=O)n2c1C(=O)NC21CCC2(CC2)CC1 [Pattern 22-8]
HPLC purity post storage at 40° C./75% RH [1]: 99.4% | XRPD post storage at 40° C./75% RH [1]: SUL P2

Cc1cc(Nc2cc(N)ncn2)c(=O)n2c1C(=O)NC21CCC2(CC2)CC1 [Pattern 36-1]
XRPD after 7 days [4]: Pattern 11

Cc1cc(Nc2cc(N)ncn2)c(=O)n2c1C(=O)NC21CCC2(CC2)CC1 [Pattern 36-2]
XRPD after 7 days [4]: Pattern 11

Cc1cc(Nc2cc(N)ncn2)c(=O)n2c1C(=O)NC21CCC2(CC2)CC1 [Pattern 36-3]
XRPD after 7 days [4]: Patterns 3 and 11 | XRPD after 17 days [4]: Patterns 3 and 11

Cc1cc(Nc2cc(N)ncn2)c(=O)n2c1C(=O)NC21CCC2(CC2)CC1 [Pattern 36-4]
XRPD after 7 days [4]: Pattern 11

Cc1cc(Nc2cc(N)ncn2)c(=O)n2c1C(=O)NC21CCC2(CC2)CC1 [Pattern 36-5]
XRPD after 7 days [4]: Pattern 11

Cc1cc(Nc2cc(N)ncn2)c(=O)n2c1C(=O)NC21CCC2(CC2)CC1 [Pattern 36-6]
XRPD after 7 days [4]: Pattern 11

Cc1cc(Nc2cc(N)ncn2)c(=O)n2c1C(=O)NC21CCC2(CC2)CC1 [Pattern 36-7]
XRPD after 7 days [4]: Pattern 11

Cc1cc(Nc2cc(N)ncn2)c(=O)n2c1C(=O)NC21CCC2(CC2)CC1 [Pattern 36-11]
XRPD after 7 days [4]: Pattern 11 + extra

Cc1cc(Nc2cc(N)ncn2)c(=O)n2c1C(=O)NC21CCC2(CC2)CC1 [Pattern 36-12]
XRPD after 7 days [4]: Pattern 11

Cc1cc(Nc2cc(N)ncn2)c(=O)n2c1C(=O)NC21CCC2(CC2)CC1 [Pattern 36-13]
XRPD after 7 days [4]: Patterns 3 and 11 | XRPD after 17 days [4]: Patterns 3 and 11

Cc1cc(Nc2cc(N)ncn2)c(=O)n2c1C(=O)NC21CCC2(CC2)CC1 [Pattern 36-14]
XRPD after 7 days [4]: Patterns 3 and 11 | XRPD after 17 days [4]: Patterns 3 and 11

Cc1cc(Nc2cc(N)ncn2)c(=O)n2c1C(=O)NC21CCC2(CC2)CC1 [Pattern 36-15]
XRPD after 7 days [4]: Patterns 3 and 11 | XRPD after 17 days [4]: Pattern 11

Cc1cc(Nc2cc(N)ncn2)c(=O)n2c1C(=O)NC21CCC2(CC2)CC1 [Pattern 38-1]
XRPD after 1 day ([4]; slurry in saturated THF/Water (9:1) solution): Patterns 3 and 11 +

Cc1cc(Nc2cc(N)ncn2)c(=O)n2c1C(=O)NC21CCC2(CC2)CC1 [TOS Pattern 1]
XRPD post storage at 40° C./75% RH [1]: large loss in crystallinity | HPLC purity post storage at 40° C./75% RH ([1]; listed as 9-4): 99.3%
